These results are taken from patent US7238694B2, “Rifamycin imino derivatives effective against drug-resistant microbes” (Cumbre Pharmaceuticals, Inc., priority 2004, dated 2007).

Each structure is given as a SMILES string. ≈ marks a conversion by molar mass, not a printed value.

Common to all, as to format: cell-based
Assay [1] deals with Staphylococcus epidermidis ATCC12228. Briefly: MIC, microbroth dilution (NCCLS).
The test system of assay [2] is Enterococcus faecalis ATCC29212. Kind of assay: MIC, microbroth dilution (NCCLS). On the technique in general: Broth dilution looks for growth in wells or tubes with falling amounts of substance.
Assay [3] concerns Escherichia coli ATCC25922. Briefly: MIC, microbroth dilution (NCCLS).
In assay [4] the test system is Haemophilus influenzae ATCC10211. Kind of assay: MIC, microbroth dilution (NCCLS).
Assay [5] relates to Staphylococcus aureus ATCC29213. Briefly: MIC, microbroth dilution (NCCLS).
In assay [6] the test system is H. influenzae ATCC 10211 and E. coli ATCC 25922. Briefly: MIC, Gram-negative bacteria. The note with it: text summary over two Gram-negative strains.
The subject of assay [7] is Staphylococcus aureus ATCC29213 rpoB^D417Y. Briefly: microbe, parasite or virus in culture.
Assay [8] deals with Streptococcus pneumoniae ATCC6303. Kind of assay: MIC, microbroth dilution (NCCLS).
Assay [9] concerns Staphylococcus aureus ATCC29213 rpoB^H418Y. Briefly: microbe, parasite or virus in culture.
For assay [10], the system named is Mycobacterium smegmatis ATCC700084. Kind of assay: MIC, microbroth dilution (NCCLS).
Assay [11] can be described thus: MIC, panel of rifampin-susceptible Gram-positive strains. The note with it: text summary over five rifampin-susceptible Gram-positive strains.
Assay [12] has as its system Streptococcus pyogenes ATCC19615. Briefly: MIC, microbroth dilution (NCCLS).
For assay [13], the system named is Staphylococcus aureus MT1222 gyrA^A116E grlB^S80F. Briefly: microbe, parasite or virus in culture.
Where [14] appears, read: Staphylococcus aureus, ATCC29213.
The mark [15] stands for this setting: rifR strain, Cation-Adjusted Mueller-Hinton Broth, 37° C.

On to `CO[C@H]1/C=C/O[C@@]2(C)Oc3c(C)c(O)c4c(O)c(c(/C=N/N5CCN(C)CC5)c(O)c4c3C2=O)NC(=O)/C(C)=C\C=C\[C@H](C)[C@H](O)[C@@H](C)[C@@H](O)[C@@H](C)[C@H](OC(C)=O)[C@@H]1C` [rifampin, reference compound], for which the MIC in assay [1] was 0.03 µg/mL (≈ 0.0365 µM); in assay [2], 0.98 µg/mL (≈ 1.19 µM); in assay [3] it was 16 µg/mL (≈ 19.4 µM); in assay [4] it was 0.24 µg/mL (≈ 0.292 µM); in assay [5], 0.008 µg/mL (≈ 0.00972 µM); in assay [6], 0.24 to 16 µg/mL (≈ 0.292 to 19.4 µM). Besides, the MIC was > 64 µg/mL in assay [7] (setting [14]); >64 µg/mL in assay [7] (setting [15]); 0.061 µg/mL (≈ 0.0741 µM) in [8]; 7.8 µg/mL (≈ 9.48 µM) in assay [9] (setting [14]); 7.8 µg/mL (≈ 9.48 µM) in assay [9] (setting [15]); 64 µg/mL (≈ 77.8 µM) in [10] (Mycolicibacterium smegmatis, ATCC700084). Besides, the MIC in assay [10] (rifS strain, Middlebrook Broth plus ADC Enrichment, 37° C.) was 64 µg/mL; in assay [11], 0.008 to 1 µg/mL (≈ 0.00972 to 1.22 µM); in assay [12], 0.013 µg/mL (≈ 0.0158 µM); in [13], 0.004 µg/mL (≈ 0.00486 µM).
